Data as given in the supplement of paper PMC10307832.

Legend:
Assay in all cases: relative viability (nuclei count vs DMSO), 5 days (fraction); higher = more cells survive
Sunitinib + Bortezomib = compound: CCN(CC)CCNC(=O)c1c(C)[nH]c(/C=C2\C(=O)Nc3ccc(F)cc32)c1C [Sunitinib] + CC(C)C[C@H](NC(=O)[C@H](Cc1ccccc1)NC(=O)c1cnccn1)B(O)O [Bortezomib] (partner 0.002 µM)
Outline: (§1)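 Five library-drug doses in √10 steps were combined with a fixed anchor-drug dose, or a single drug was given alone, by pin tool to lung cancer cell lines in 1536-well plates the day after seeding. Nuclei were stained and counted after 5 days. Relative viability is the nuclei count in treated wells over that in vehicle wells, taken as the median of duplicate plates.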

Sunitinib + Luminespib = compound: CCN(CC)CCNC(=O)c1c(C)[nH]c(/C=C2\C(=O)Nc3ccc(F)cc32)c1C [Sunitinib] + CCNC(=O)c1noc(-c2cc(C(C)C)c(O)cc2O)c1-c1ccc(CN2CCOCC2)cc1 [Luminespib] (partner 0.01 µM)
Outline: as §1

Sunitinib + Palbociclib = compound: CCN(CC)CCNC(=O)c1c(C)[nH]c(/C=C2\C(=O)Nc3ccc(F)cc32)c1C [Sunitinib] + CC(=O)c1c(C)c2cnc(Nc3ccc(N4CCNCC4)cn3)nc2n(C2CCCC2)c1=O [Palbociclib] (partner 0.5 µM)
Outline: as §1

Sunitinib + Dasatinib = compound: CCN(CC)CCNC(=O)c1c(C)[nH]c(/C=C2\C(=O)Nc3ccc(F)cc32)c1C [Sunitinib] + Cc1nc(Nc2ncc(C(=O)Nc3c(C)cccc3Cl)s2)cc(N2CCN(CCO)CC2)n1 [Dasatinib] (partner 0.075 µM)
Outline: as §1

| Cell Line | relative viability (Sunitinib + Bortezomib; first compound 0.02 µM) | relative viability (Sunitinib + Bortezomib; first compound 0.06325 µM) | relative viability (Sunitinib + Bortezomib; first compound 0.2 µM) | relative viability (Sunitinib + Bortezomib; first compound 0.6325 µM) | relative viability (Sunitinib + Luminespib; first compound 0.02 µM) | relative viability (Sunitinib + Luminespib; first compound 0.06325 µM) | relative viability (Sunitinib + Luminespib; first compound 0.2 µM) | relative viability (Sunitinib + Luminespib; first compound 0.6325 µM) | relative viability (Sunitinib + Luminespib; first compound 2 µM) | relative viability (Sunitinib + Palbociclib; first compound 0.02 µM) | relative viability (Sunitinib + Palbociclib; first compound 0.06325 µM) | relative viability (Sunitinib + Palbociclib; first compound 0.2 µM) | relative viability (Sunitinib + Palbociclib; first compound 0.6325 µM) | relative viability (Sunitinib + Palbociclib; first compound 2 µM) | relative viability (Sunitinib + Dasatinib; first compound 0.02 µM) | relative viability (Sunitinib + Dasatinib; first compound 0.06325 µM) | relative viability (Sunitinib + Dasatinib; first compound 0.2 µM) | relative viability (Sunitinib + Dasatinib; first compound 0.6325 µM) | relative viability (Sunitinib + Dasatinib; first compound 2 µM) | relative viability (Sunitinib + Bortezomib; first compound 2 µM) |
| --- | --- | --- | --- | --- | --- | --- | --- | --- | --- | --- | --- | --- | --- | --- | --- | --- | --- | --- | --- | --- |
| COR-L23 | 0.995 | 1.02 | 1 | 1.13 | 0.647 | 0.658 | 0.881 | 0.831 | 0.57 | 0.305 | 0.402 | 0.324 | 0.295 | 0.363 | 0.489 | 0.522 | 0.622 | 0.533 | 0.542 | – |
| LK-2 | – | – | – | – | 0.193 | 0.213 | 0.208 | 0.231 | 0.2 | 0.563 | – | 0.681 | 0.586 | 0.642 | 0.223 | 0.27 | 0.324 | 0.339 | 0.297 | – |
| SK-LU-1 | 0.959 | 1.26 | 1.38 | 1.36 | 0.21 | 0.187 | 0.21 | 0.216 | 0.2 | 0.381 | 0.4 | 0.4 | 0.411 | 0.356 | 0.179 | 0.185 | 0.176 | 0.171 | 0.161 | 0.982 |
| NCI-H1651 | – | 1.06 | 0.987 | 0.884 | 0.758 | 0.766 | 1.06 | 0.942 | 1.14 | 0.488 | 0.539 | 0.516 | 0.498 | 0.55 | 0.389 | 0.506 | 0.59 | 0.462 | 0.527 | 0.968 |
| NCI-H2126 | 1.07 | 1.19 | 1.16 | 1.15 | 0.875 | 0.918 | 0.897 | 0.985 | 0.866 | 0.341 | 0.36 | 0.37 | 0.338 | 0.359 | 0.601 | 0.67 | 0.636 | 0.719 | 0.638 | 1.13 |
| NCI-H596 | 0.996 | 1.16 | 0.999 | 1.08 | 0.884 | 1.05 | 1.09 | 1.03 | 0.941 | – | – | – | – | – | 0.599 | 0.731 | 0.709 | 0.709 | 0.467 | 1.33 |
| NCI-H1734 | 0.855 | 0.962 | 1.35 | 1.09 | 0.166 | 0.186 | 0.188 | 0.149 | 0.212 | 0.364 | 0.375 | 0.37 | 0.34 | 0.323 | 0.456 | 0.43 | 0.503 | 0.451 | 0.46 | 0.911 |
| NCI-H1648 | – | – | – | – | – | – | – | – | – | 0.257 | 0.328 | 0.239 | 0.279 | 0.308 | – | – | – | – | – | – |
| NCI-H23 | 0.871 | 1.45 | 1.17 | 1.44 | 0.214 | 0.229 | 0.204 | 0.214 | 0.21 | 0.469 | 0.599 | 0.488 | 0.532 | 0.49 | 0.658 | 0.787 | 0.959 | 0.955 | 0.794 | 0.945 |
| LXF-289 | 0.981 | 0.958 | 1.06 | 1.04 | 0.635 | 0.734 | 0.89 | – | 0.651 | 0.599 | 0.621 | 0.597 | 0.619 | 0.603 | 0.248 | 0.25 | 0.237 | 0.204 | 0.271 | 1.01 |
| HCC-44 | 0.893 | 0.898 | 1.1 | – | 0.949 | 1.1 | 1.5 | 0.972 | 1.14 | – | – | 1.01 | 0.925 | 1.01 | – | – | – | – | – | 0.88 |
| EMC-BAC-2 | 1.06 | 1.14 | 1.26 | 1.05 | 1.11 | 1.2 | 1.11 | 1.16 | 1.14 | 0.505 | 0.534 | 0.526 | 0.556 | 0.579 | 0.318 | 0.336 | 0.383 | 0.344 | 0.36 | 1.12 |
| NCI-H522 | – | – | – | – | 0.951 | 1.11 | 1.21 | 1.14 | 1.28 | 0.961 | 0.924 | 1.11 | 1.03 | 0.909 | 0.731 | 1.05 | 0.899 | 1.04 | 0.923 | – |
| NCI-H1975 | 0.401 | 0.448 | 0.401 | 0.438 | 0.278 | 0.185 | 0.185 | 0.173 | 0.172 | 0.531 | 0.715 | 0.76 | 0.727 | 0.473 | 0.36 | 0.403 | 0.399 | 0.423 | 0.344 | 0.406 |
| PC-14 | 0.946 | 0.858 | 0.99 | 0.878 | 0.18 | 0.121 | 0.201 | 0.144 | 0.216 | 0.509 | 0.462 | 0.562 | 0.527 | 0.474 | 0.291 | 0.232 | 0.269 | 0.385 | 0.261 | 0.726 |
| LCLC-103H | 1.11 | 1.19 | 1.2 | 1.04 | 0.883 | 1.04 | 0.966 | 0.977 | 1.06 | 0.499 | 0.488 | 0.484 | 0.495 | 0.52 | 0.428 | 0.527 | 0.501 | 0.462 | 0.589 | 1.18 |
| NCI-H1944 | – | – | – | – | 0.738 | 0.722 | 0.752 | 0.769 | 0.638 | 0.337 | 0.317 | 0.378 | 0.346 | 0.339 | 0.205 | 0.246 | 0.211 | 0.239 | 0.211 | – |
| HOP-62 | 0.798 | 0.83 | 0.947 | 0.871 | 0.832 | 0.928 | 1 | 1.02 | 0.919 | 0.381 | 0.485 | 0.496 | 0.427 | 0.533 | 0.616 | 0.744 | 0.826 | 0.777 | 0.682 | 1.13 |
